ChEMBL document CHEMBL3232804, “Synthesis and evaluation of new diaryl ether and quinoline hybrids as potential antiplasmodial and antimicrobial agents” (Bioorg Med Chem Lett, 2014)
≈ marks a conversion by molar mass, not a printed value.

Assays:
Klebsiella pneumoniae = assay: Antimicrobial activity against Klebsiella pneumoniae ATCC 27736 after 24 hrs by standard broth microdilution method; format: functional; conditions: ATCC 27736, 24 h
Pseudomonas aeruginosa = assay: Antimicrobial activity against Pseudomonas aeruginosa ATCC BAA-427 after 24 hrs by standard broth microdilution method; format: functional; conditions: ATCC BAA-427, 24 h
Candida parapsilosis = assay: Antifungal activity against Candida parapsilosis ATCC […] after 72 to 96 hrs by standard broth microdilution method; format: functional; conditions: Lodderomyces parapsilosis
Aspergillus fumigatus = assay: Antifungal activity against Aspergillus fumigatus clinical isolate after 72 to 96 hrs by standard broth microdilution method; format: functional
Candida albicans = assay: Antifungal activity against Candida albicans clinical isolate after 24 to 48 hrs by standard broth microdilution method; format: functional
Staphylococcus aureus = assay: Antimicrobial activity against Staphylococcus aureus ATCC 25923 after 24 hrs by standard broth microdilution method; format: functional; conditions: ATCC 25923, 24 h
Plasmodium falciparum [1] = assay: Antiplasmodial activity against chloroquine-resistant Plasmodium falciparum K1 infected after 72 hrs by Malaria SYBR Green I-staining based fluorescence assay; format: functional, organism-based; conditions: K1, 72 h
[2] = tested on: Trichophyton mentagrophytes; assay: Antifungal activity against Trichophyton mentagrophytes clinical isolate after 72 to 96 hrs by standard broth microdilution method; format: functional
[3] = Selectivity index, ratio of IC50 for african green monkey Vero cells to IC50 for chloroquine-sensitive Plasmodium falciparum 3D7; format: toxicity, cell-based; conditions: read-out: Ratio IC50
Cryptococcus neoformans = assay: Antifungal activity against Cryptococcus neoformans clinical isolate after 24 to 48 hrs by standard broth microdilution method; format: functional
Escherichia coli = assay: Antimicrobial activity against Escherichia coli ATCC 9637 after 24 hrs by standard broth microdilution method; format: functional; conditions: ATCC 9637, 24 h
Sporothrix schenckii = assay: Antifungal activity against Sporothrix schenckii clinical isolate after 72 to 96 hrs by standard broth microdilution method; format: functional
Plasmodium falciparum [4] = assay: Antiplasmodial activity against chloroquine-sensitive Plasmodium falciparum 3D7 infected after 72 hrs by Malaria SYBR Green I-staining based fluorescence assay; format: functional, organism-based; conditions: 3D7, 72 h

| Structure (SMILES) | MIC (Klebsiella pneumoniae) [mg/L] | MIC (Pseudomonas aeruginosa) [mg/L] | MIC (Candida parapsilosis) [mg/L] | MIC (Aspergillus fumigatus) [mg/L] | MIC (Candida albicans) [mg/L] | MIC (Staphylococcus aureus) [mg/L] | IC50 (Plasmodium falciparum [1]) [µM] | MIC [2] [mg/L] | selectivity ratio [3] | MIC (Cryptococcus neoformans) [mg/L] | MIC (Escherichia coli) [mg/L] | MIC (Sporothrix schenckii) [mg/L] | IC50 (Plasmodium falciparum [4]) [µM] |
| --- | --- | --- | --- | --- | --- | --- | --- | --- | --- | --- | --- | --- | --- |
| Clc1cccc(/N=C(\NCCCCNc2ccnc3cc(Cl)ccc23)Nc2ccccc2Oc2cc(Cl)ccc2Cl)c1 | 12.5 (≈ 19.5 µM) | 50 (≈ 78.2 µM) | 25 (≈ 39.1 µM) | 50 (≈ 78.2 µM) | 25 (≈ 39.1 µM) | 1.56 (≈ 2.44 µM) | 0.432 | 25 (≈ 39.1 µM) | 7.7 | 50 (≈ 78.2 µM) | 12.5 (≈ 19.5 µM) | 25 (≈ 39.1 µM) | 0.149 |
| COC(=O)/C(C)=C/c1ccc(Oc2ccccc2N/C(=N/c2ccc(Cl)cc2)NCCCCNc2ccnc3cc(Cl)ccc23)cc1 | > 50 | > 50 | > 50 | > 50 | 50 (≈ 74.8 µM) | 1.56 (≈ 2.33 µM) | 0.0412 | 6.25 (≈ 9.35 µM) | 102 | 50 (≈ 74.8 µM) | 12.5 (≈ 18.7 µM) | 6.25 (≈ 9.35 µM) | 0.0968 |
| COC(=O)/C(C)=C/c1ccc(Oc2ccc(N/C(=N/c3ccccc3)NCCCCNc3ccnc4cc(Cl)ccc34)cc2)cc1 | 50 (≈ 78.8 µM) | > 50 | 25 (≈ 39.4 µM) | > 50 | 25 (≈ 39.4 µM) | 50 (≈ 78.8 µM) | 0.0767 | 25 (≈ 39.4 µM) | 91.8 | 25 (≈ 39.4 µM) | 25 (≈ 39.4 µM) | 25 (≈ 39.4 µM) | 0.0944 |
| COc1ccc(Oc2ccccc2N/C(=N/c2cccc(Cl)c2)NCCNc2ccnc3cc(Cl)ccc23)cc1 | 12.5 (≈ 21.8 µM) | > 50 | > 50 | 12.5 (≈ 21.8 µM) | 6.25 (≈ 10.9 µM) | 6.25 (≈ 10.9 µM) | 0.201 | 12.5 (≈ 21.8 µM) | 208 | 12.5 (≈ 21.8 µM) | 6.25 (≈ 10.9 µM) | > 50 | 0.0434 |
| COC(=O)/C(C)=C/c1ccc(Oc2ccccc2N/C(=N/c2cccc(Cl)c2)NCCNc2ccnc3cc(Cl)ccc23)cc1 | 3.12 (≈ 4.87 µM) | > 50 | 25 (≈ 39 µM) | 50 (≈ 78.1 µM) | 25 (≈ 39 µM) | 3.12 (≈ 4.87 µM) | 0.489 | 25 (≈ 39 µM) | 234 | 25 (≈ 39 µM) | 50 (≈ 78.1 µM) | 25 (≈ 39 µM) | 0.0349 |
| COC(=O)/C(C)=C/c1ccc(Oc2ccccc2N/C(=N/c2cccc(Cl)c2)NCCCNc2ccnc3cc(Cl)ccc23)cc1 | 3.12 (≈ 4.77 µM) | > 50 | > 50 | > 50 | 50 (≈ 76.4 µM) | 3.12 (≈ 4.77 µM) | 0.292 | 50 (≈ 76.4 µM) | 368 | > 50 | 6.25 (≈ 9.55 µM) | 50 (≈ 76.4 µM) | 0.0203 |
| COC(=O)/C(C)=C/c1ccc(Oc2ccccc2N/C(=N/c2ccccc2)NCCCNc2ccnc3cc(Cl)ccc23)cc1 | > 50 | > 50 | > 50 | > 50 | > 50 | > 50 | 0.161 | > 50 | 37.2 | > 50 | > 50 | > 50 | 0.175 |
| COC(=O)/C(C)=C/c1ccc(Oc2ccc(N/C(=N/c3ccc(Cl)cc3)NCCCCNc3ccnc4cc(Cl)ccc34)cc2)cc1 | 50 (≈ 74.8 µM) | > 50 | 12.5 (≈ 18.7 µM) | 50 (≈ 74.8 µM) | 6.25 (≈ 9.35 µM) | 12.5 (≈ 18.7 µM) | 0.716 | 12.5 (≈ 18.7 µM) | 145 | 6.25 (≈ 9.35 µM) | 25 (≈ 37.4 µM) | 6.25 (≈ 9.35 µM) | 0.0564 |
| COC(=O)/C(C)=C/c1ccc(Oc2ccc(N/C(=N/c3ccccc3)NCCCNc3ccnc4cc(Cl)ccc34)cc2)cc1 | > 50 | > 50 | 25 (≈ 40.3 µM) | 25 (≈ 40.3 µM) | 6.25 (≈ 10.1 µM) | 25 (≈ 40.3 µM) | > 0.8 | 12.5 (≈ 20.2 µM) | 84.3 | 6.25 (≈ 10.1 µM) | 50 (≈ 80.6 µM) | 6.25 (≈ 10.1 µM) | 0.0782 |
| Clc1ccc(/N=C(\NCCCCNc2ccnc3cc(Cl)ccc23)Nc2ccccc2Oc2cc(Cl)ccc2Cl)cc1 | > 50 | > 50 | > 50 | > 50 | > 50 | > 50 | 0.151 | > 50 | 11 | > 50 | > 50 | > 50 | 0.653 |
| Clc1cccc(/N=C(\NCCCNc2ccnc3cc(Cl)ccc23)Nc2ccc(Oc3cc(Cl)ccc3Cl)cc2)c1 | > 50 | > 50 | 25 (≈ 40 µM) | 12.5 (≈ 20 µM) | 3.12 (≈ 4.99 µM) | 12.5 (≈ 20 µM) | > 0.8 | 6.25 (≈ 9.99 µM) | 44.5 | 6.25 (≈ 9.99 µM) | 6.25 (≈ 9.99 µM) | 3.12 (≈ 4.99 µM) | 0.0762 |
| Clc1ccc(/N=C(\NCCCNc2ccnc3cc(Cl)ccc23)Nc2ccccc2Oc2cc(Cl)ccc2Cl)cc1 | > 50 | > 50 | 50 (≈ 80 µM) | > 50 | 6.25 (≈ 9.99 µM) | 6.25 (≈ 9.99 µM) | > 0.8 | > 50 | 112 | 25 (≈ 40 µM) | 12.5 (≈ 20 µM) | 25 (≈ 40 µM) | 0.0872 |
